Source: US20210323950A1, “HERBICIDALLY ACTIVE BICYCLIC BENZOYLPYRAZOLES” (Bayer Aktiengesellschaft, priority 2018, published 2021)

Columns and labels:
Type in all cases: in vivo
Conditions in all cases: 320 g/ha, scored visually after about 3 weeks vs untreated controls
[1] = system: Cyperus esculentus (CYPES); assay: Pre-emergence herbicidal action against CYPES
Text: (§1) CYPES: Cyperus esculentus 1. Pre-Emergence Herbicidal Action and Crop Plant Compatibility Seeds of monocotyledonous and dicotyledonous weed plants and crop plants are placed in plastic or organic planting pots and covered with soil. The compounds of the invention, formulated in the form of wettable powders (WP) or as emulsion concentrates (EC), are then applied onto the surface of the covering soil as aqueous suspension or emulsion with addition of 0.5% additive at a water application rate of […] (converted). After the treatment, the pots are placed in a greenhouse and kept under good growth conditions for the trial plants. After about 3 weeks, the effect of the preparations is scored visually in comparison with untreated controls as percentages. The tables below show the herbicidal activity of numerous compounds according to the invention against important harmful plants. For example, 100% activity=the plants have died, 0% activity=like control plants.

[2] = system: Echinochloa crus-galli (ECHCG); assay: Pre-emergence herbicidal action against ECHCG
Text: as §1, with “ECHCG: Echinochloa crus-galli” for “CYPES: Cyperus esculentus”

Setaria viridis (SETVI) = assay: Pre-emergence herbicidal action against SETVI
Text: as §1, with “SETVI: Setaria viridis” for “CYPES: Cyperus esculentus”

[3] = system: Abutilon theophrasti (ABUTH); assay: Pre-emergence herbicidal action against ABUTH
Text: as §1, with “ABUTH: Abutilon theophrasti” for “CYPES: Cyperus esculentus”

[4] = system: Amaranthus retroflexus (AMARE); assay: Pre-emergence herbicidal action against AMARE
Summary of the method: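 Formulated compounds (WP or EC) sprayed onto soil covering sown seeds, with 0.5% additive at […] water (converted). Greenhouse-grown about 3 weeks, then damage scored visually as percent versus untreated controls (100% = dead, 0% = like control).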

Stellaria media (STEME) = assay: Pre-emergence herbicidal action against STEME
Summary of the method: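 Weed seeds are sown in pots under soil, and WP or EC formulations are applied pre-emergence to the soil surface as an aqueous suspension or emulsion with 0.5% additive. After about 3 weeks in the greenhouse, effect is scored visually as % versus untreated controls (100% = plants dead, 0% = like control).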

Viola tricolor (VIOTR) = assay: Pre-emergence herbicidal action against VIOTR
Text: as §1, with “VIOTR: Viola tricolor” for “CYPES: Cyperus esculentus”

Veronica persica (VERPE) = assay: Pre-emergence herbicidal action against VERPE
Text: as §1, with “VERPE: Veronica persica” for “CYPES: Cyperus esculentus”

SMILES: Cn1ncc(C(=O)c2ccc(C(F)(F)F)c3c2OCS3(=O)=O)c1O [Example 1-43]
- Pre-emergence action against CYPES [1]: 100%
- Pre-emergence action against ECHCG [2]: 100%
- Pre-emergence action against SETVI (Setaria viridis (SETVI)): 100%
- Pre-emergence action against ABUTH [3]: 90%
- Pre-emergence action against AMARE [4]: 100%
- Pre-emergence action against STEME (Stellaria media (STEME)): 90%
- Pre-emergence action against VIOTR (Viola tricolor (VIOTR)): 100%
- Pre-emergence action against VERPE (Veronica persica (VERPE)): 100%
